Assay [1] has as its system Ishikawa. The assay is described as follows: Potentiation of tamoxifen-induced antiestrogenic activity in human Ishikawa cells assessed as decrease in tamoxifen IC50 at 2 ug/ml after 4 days by ELISA. The assay is classed as functional, cell-based. On the technique in general: ELISA stands for enzyme-linked immunosorbent assay.
The target in assay [2] is Anti-estrogen binding site (Rattus norvegicus). The assay is described as follows: Displacement of [3H]tamoxifen from antiestrogen binding site in Sprague-Dawley rat liver by liquid scintillation counting. In general terms: Loss of bound radioactivity is the signal in a displacement assay; it reports binding, not function.
Assay [3] concerns Ishikawa. The assay is described as follows: Potentiation of tamoxifen-induced antiestrogenic activity in human Ishikawa cells assessed as decrease in tamoxifen IC50 at 1 ug/ml after 4 days by ELISA. The assay is classed as functional, cell-based.
For assay [4], the system named is Ishikawa. The assay is described as follows: Antiestrogenic activity in human Ishikawa cells assessed as inhibition of estrogen-induced alkaline phosphatase activity after 4 days by ELISA. The settings on record: 96 h.

The source of these data is ChEMBL document CHEMBL1150962, “Activity-guided isolation of steroidal alkaloid antiestrogen-binding site inhibitors from Pachysandra procumbens” (J Nat Prod, 1998).

By IC50 is commonly meant the concentration that inhibits the measured activity by half.

Active and inactive are the calls of the source. The calls are words filed in the database; no cut-off is given here. Some results are limits rather than exact numbers.

As to `C[C@@H]([C@H]1CC[C@H]2[C@@H]3CC[C@H]4C(=O)C(NC(=O)c5ccccc5)=CC[C@]4(C)[C@H]3CC[C@]12C)N(C)C`, the outcome in the assay on Ishikawa [1] was Active. Moreover, in assay [2], the IC50 is 8 µM.
In the case of `CC(C)[C@@H]1CN(C2=CC[C@@]3(C)[C@@H](CC[C@@H]4[C@@H]3CC[C@]3(C)[C@@H]([C@H](C)N(C)C)CC[C@@H]43)C2=O)C1=O`, the outcome in the assay with Ishikawa [1] was Active.
For the molecule `CC(C)[C@@H]1CN(C2=CC[C@@]3(C)[C@@H](CC[C@@H]4[C@@H]3CC[C@]3(C)[C@@H]([C@H](C)N(C)C)[C@@H](O)C[C@@H]43)C2=O)C1=O`, the result in the assay on Ishikawa [1] was Active. In assay [2], this molecule displayed an IC50 of 3.5 µM.
For `CO[C@H]1CC[C@@]2(C)C(=CC[C@H]3[C@@H]4CC[C@H]([C@H](C)N(C)C)[C@@]4(C)CC[C@@H]32)C1` the same measures were “Active” and 0.4 µM.
As for `CC(C)=CC(=O)N(C)[C@@H]1CC[C@@]2(C)[C@@H](CC[C@@H]3[C@@H]2CC[C@]2(C)[C@@H]([C@H](C)N(C)C)CC[C@@H]32)C1` [(+)-PACHYSAMINE B], the result in the assay on Ishikawa [3] was Active. In addition, the IC50 in assay [2] is 0.6 µM.
`CC(=O)O[C@H]1C(NC(=O)c2ccccc2)=CC[C@]2(C)[C@H]3CC[C@]4(C)[C@@H]([C@H](C)N(C)C)CC[C@H]4[C@@H]3CC[C@@H]12`: in the assay with Ishikawa [3], the outcome was Active. The IC50 in assay [2] was found to be 0.6 µM.
Take `CC(=O)O[C@H]1[C@@H](N2C(=O)c3ccccc3C2=O)[C@H](O)C[C@]2(C)[C@H]3CC[C@]4(C)[C@@H]([C@H](C)N(C)C)CC[C@H]4[C@@H]3CC[C@@H]12`: the outcome with Ishikawa [1] was Active.
For the molecule `C[C@@H]([C@H]1CC[C@H]2[C@@H]3CC[C@H]4C[C@]5(CC[C@]4(C)[C@H]3CC[C@]12C)c1ccccc1C(=O)N5C)N(C)C`, in the assay with Ishikawa [1], the result was Active. Also, the IC50 in assay [2] was 7.4 µM.
For `CC/C(=C(\c1ccccc1)c1ccc(OCCN(C)C)cc1)c1ccccc1` [TAMOXIFEN], the IC50 with Ishikawa [4] was 0.42 µM.
Turning to `C[C@@H]([C@H]1CC[C@H]2[C@@H]3CC[C@H]4C[C@@H](NC(=O)c5ccccc5)CC[C@]4(C)[C@H]3CC[C@]12C)N(C)C` [EPIPACHYSAMINE D], the result in the assay with Ishikawa [1] was Active. In assay [2], this molecule came in with an IC50 of more than 20 µM.
